Data as given in PubChem BioAssay (NCI).
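Here, GI50 denotes the concentration required for 50% inhibition of growth. TGI: concentration producing complete growth inhibition.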

What was measured:
Test in all cases: growth of human tumour cells (NCI), 384-well format
[1] = test system: A498 renal
[2] = test system: MCF7 breast
[3] = test system: T-47D breast
[4] = test system: NCI-H23 lung
[5] = test system: NCI-H226 lung
[6] = test system: RPMI-8226 leukemia
[7] = test system: HS 578T breast
[8] = test system: SW-620 colon
[9] = test system: U251 glioblastoma
[10] = test system: MALME-3M melanoma
[11] = test system: COLO 205 colon
[12] = test system: LOX IMVI melanoma
[13] = test system: NCI/ADR-RES ovarian
[14] = test system: 786-0 renal
[15] = test system: DU-145 prostate
[16] = test system: SK-OV-3 ovarian
[17] = test system: NCI-H522 lung
[18] = test system: UACC-62 melanoma
[19] = test system: MDA-MB-468 breast
[20] = test system: CAKI-1 renal
[21] = test system: PC-3 prostate
[22] = test system: OVCAR-5 ovarian
[23] = test system: K-562 leukemia
[24] = test system: IGROV1 ovarian
[25] = test system: HCC-2998 colon
[26] = test system: HOP-62 NSCLC
[27] = test system: SK-MEL-28 melanoma
[28] = test system: RXF 393 renal
[29] = test system: ACHN renal
[30] = test system: MOLT-4 leukemia
[31] = test system: HOP-92 NSCLC
[32] = test system: A549 NSCLC
[33] = test system: UACC-257 melanoma
[34] = test system: SNB-75 CNS
[35] = test system: OVCAR-4 ovarian
[36] = test system: HL-60(TB) leukemia
[37] = test system: OVCAR-8 ovarian
[38] = test system: M14 melanoma
[39] = test system: SK-MEL-5 melanoma
[40] = test system: MDA-MB-435 melanoma
[41] = test system: UO-31 renal
[42] = test system: SF-295 CNS
[43] = test system: OVCAR-3 ovarian
[44] = test system: HT29 colon
[45] = test system: NCI-H322M lung
[46] = test system: SF-539 CNS
[47] = test system: HCT-116 colon
[48] = test system: BT-549 breast
[49] = test system: NCI-H460 NSCLC
[50] = test system: SF-268 CNS
[51] = test system: HCT-15 colon
[52] = test system: SN12C renal
[53] = test system: TK-10 renal
[54] = test system: KM12 colon
[55] = test system: SNB-19 CNS
[56] = test system: MDA-MB-231 breast
[57] = test system: EKVX NSCLC
[58] = test system: CCRF-CEM leukemia
[59] = test system: SR leukemia

Structure (SMILES): C[C@H](c1ccc(F)cc1CCCC(=O)O)N(c1cc(F)ccc1F)S(=O)(=O)c1ccc(Cl)cc1
- GI50 [1]: 20.2 µM
- TGI [1]: 69.3 µM
- GI50 [2]: 22.7 µM
- TGI [2]: 88.9 µM
- GI50 [3]: 2.26 µM
- TGI [3]: 26.6 µM
- GI50 [4]: 14.9 µM
- TGI [4]: 41.6 µM
- GI50 [5]: 25.2 µM
- TGI [5]: 76 µM
- GI50 [6]: 19.4 µM
- TGI [6]: 36.6 µM
- GI50 [7]: 12.2 µM
- TGI [7]: 33.3 µM
- GI50 [8]: 32.8 µM
- TGI [8]: > 100 µM
- GI50 [9]: 19.9 µM
- TGI [9]: 49.4 µM
- GI50 [10]: 23.7 µM
- TGI [10]: > 100 µM
- GI50 [11]: 30.1 µM
- TGI [11]: > 100 µM
- GI50 [12]: 19 µM
- TGI [12]: 45.6 µM
- GI50 [13]: 32 µM
- TGI [13]: > 100 µM
- GI50 [14]: 28.9 µM
- TGI [14]: > 100 µM
- GI50 [15]: 28.2 µM
- TGI [15]: > 100 µM
- GI50 [16]: 32.8 µM
- TGI [16]: > 100 µM
- GI50 [17]: 27.9 µM
- TGI [17]: 76.3 µM
- GI50 [18]: 16.9 µM
- TGI [18]: 40.4 µM
- GI50 [19]: 5.35 µM
- TGI [19]: 30.3 µM
- GI50 [20]: 45.9 µM
- TGI [20]: > 100 µM
- GI50 [21]: 22.7 µM
- TGI [21]: 66.8 µM
- GI50 [22]: 38.5 µM
- TGI [22]: > 100 µM
- GI50 [23]: 27.1 µM
- TGI [23]: > 100 µM
- GI50 [24]: 30.5 µM
- TGI [24]: > 100 µM
- GI50 [25]: 1.41 µM
- TGI [25]: 16.3 µM
- GI50 [26]: 16.4 µM
- TGI [26]: 37.1 µM
- GI50 [27]: 46 µM
- TGI [27]: > 100 µM
- GI50 [28]: 27.9 µM
- TGI [28]: > 100 µM
- GI50 [29]: 30.4 µM
- TGI [29]: > 100 µM
- GI50 [30]: 11.7 µM
- TGI [30]: 24.2 µM
- GI50 [31]: 13.5 µM
- TGI [31]: 44.6 µM
- GI50 [32]: 16.1 µM
- TGI [32]: 46.2 µM
- GI50 [33]: 13.6 µM
- TGI [33]: 68.4 µM
- GI50 [34]: 26.2 µM
- TGI [34]: > 100 µM
- GI50 [35]: 26 µM
- TGI [35]: > 100 µM
- GI50 [36]: 19.1 µM
- TGI [36]: 33.6 µM
- GI50 [37]: 32.1 µM
- TGI [37]: > 100 µM
- GI50 [38]: 21.4 µM
- TGI [38]: 70.5 µM
- GI50 [39]: 13.1 µM
- TGI [39]: 29.7 µM
- GI50 [40]: 24 µM
- TGI [40]: 53.8 µM
- GI50 [41]: 15.7 µM
- TGI [41]: 33 µM
- GI50 [42]: 17.7 µM
- TGI [42]: 49.7 µM
- GI50 [43]: 17.9 µM
- TGI [43]: 38 µM
- GI50 [44]: 31.3 µM
- TGI [44]: > 100 µM
- GI50 [45]: 25.6 µM
- TGI [45]: > 100 µM
- GI50 [46]: 23.8 µM
- TGI [46]: 66.2 µM
- GI50 [47]: 20.2 µM
- TGI [47]: 43.8 µM
- GI50 [48]: 18.8 µM
- TGI [48]: 42 µM
- GI50 [49]: 17.2 µM
- TGI [49]: 33.8 µM
- GI50 [50]: 14 µM
- TGI [50]: 34.2 µM
- GI50 [51]: 22.4 µM
- TGI [51]: 95.5 µM
- GI50 [52]: 28.8 µM
- TGI [52]: > 100 µM
- GI50 [53]: 31.1 µM
- TGI [53]: > 100 µM
- GI50 [54]: 28.7 µM
- TGI [54]: > 100 µM
- GI50 [55]: 35.9 µM
- TGI [55]: > 100 µM
- GI50 [56]: 34 µM
- TGI [56]: > 100 µM
- GI50 [57]: 21.6 µM
- TGI [57]: 63.1 µM
- GI50 [58]: 12.3 µM
- TGI [58]: 26.5 µM

Structure (SMILES): CNC(=O)c1nn(C)c2c1C(C)(C)Cc1cnc(Nc3cccc(N4CCN(C)CC4)c3)nc1-2
- GI50 [1]: 0.0466 µM
- TGI [1]: 12.3 µM
- GI50 [2]: 0.345 µM
- TGI [2]: 11.4 µM
- GI50 [3]: 1.61 µM
- TGI [3]: 13.5 µM
- GI50 [4]: 0.157 µM
- TGI [4]: 0.895 µM
- GI50 [5]: 0.251 µM
- TGI [5]: 4.6 µM
- GI50 [6]: 0.0954 µM
- TGI [6]: 0.253 µM
- GI50 [7]: 0.148 µM
- TGI [7]: 1.31 µM
- GI50 [8]: 0.391 µM
- TGI [8]: 12.6 µM
- GI50 [9]: 0.437 µM
- TGI [9]: 12.7 µM
- GI50 [10]: 0.253 µM
- TGI [10]: 2.03 µM
- GI50 [11]: 0.416 µM
- TGI [11]: 9.35 µM
- GI50 [14]: 0.309 µM
- TGI [14]: 10.9 µM
- GI50 [15]: 0.522 µM
- TGI [15]: 10.5 µM
- GI50 [16]: 0.0422 µM
- TGI [16]: 1.29 µM
- GI50 [17]: 0.153 µM
- TGI [17]: 0.436 µM
- GI50 [18]: 0.206 µM
- TGI [18]: 2.26 µM
- GI50 [19]: 0.463 µM
- TGI [19]: 1.83 µM
- GI50 [21]: 0.185 µM
- TGI [21]: 11.2 µM
- GI50 [24]: 0.0624 µM
- TGI [24]: 0.616 µM
- GI50 [25]: 0.433 µM
- TGI [25]: 6.56 µM
- GI50 [26]: 0.357 µM
- TGI [26]: 7.18 µM
- GI50 [27]: 1.08 µM
- TGI [27]: 4.01 µM
- GI50 [28]: 0.122 µM
- TGI [28]: 2.14 µM
- GI50 [30]: 0.13 µM
- TGI [30]: 0.317 µM
- GI50 [31]: 0.199 µM
- TGI [31]: > 100 µM
- GI50 [32]: 0.278 µM
- TGI [32]: 12.8 µM
- GI50 [33]: 1.16 µM
- TGI [33]: 4.3 µM
- GI50 [34]: 0.216 µM
- TGI [34]: 2.17 µM
- GI50 [35]: 2.26 µM
- TGI [35]: 10.6 µM
- GI50 [36]: 0.0842 µM
- TGI [36]: 1.63 µM
- GI50 [37]: 1.45 µM
- TGI [37]: 17.1 µM
- GI50 [38]: 0.124 µM
- TGI [38]: 3.59 µM
- GI50 [40]: 0.612 µM
- TGI [40]: 11.3 µM
- TGI [59]: 0.0573 µM
- GI50 [41]: 0.235 µM
- TGI [41]: 2.19 µM
- GI50 [42]: 0.375 µM
- TGI [42]: 3.9 µM
- GI50 [43]: 0.167 µM
- TGI [43]: 0.741 µM
- GI50 [44]: 0.886 µM
- TGI [44]: 3.76 µM
- GI50 [45]: 0.523 µM
- TGI [45]: 11.2 µM
- GI50 [46]: 0.405 µM
- TGI [46]: 3.42 µM
- GI50 [47]: 0.123 µM
- TGI [47]: 11.7 µM
- GI50 [48]: 0.276 µM
- TGI [48]: 2.04 µM
- GI50 [49]: 0.0893 µM
- TGI [49]: 5.35 µM
- GI50 [50]: 0.536 µM
- TGI [50]: 2.27 µM
- GI50 [52]: 0.198 µM
- TGI [52]: 1.74 µM
- GI50 [53]: 0.336 µM
- TGI [53]: 10.4 µM
- GI50 [54]: 0.0337 µM
- TGI [54]: 10.6 µM
- GI50 [55]: 0.414 µM
- TGI [55]: 24.1 µM
- GI50 [56]: 0.251 µM
- TGI [56]: 43.6 µM
- GI50 [58]: 0.252 µM
- TGI [58]: 1.21 µM

Structure (SMILES): O=C(CCBr)N1CCN(C(=O)CCBr)CC1
- GI50 [1]: 70.1 µM
- GI50 [2]: 30.9 µM
- GI50 [4]: 34.7 µM
- GI50 [5]: 56.3 µM
- GI50 [6]: 17 µM
- GI50 [7]: 22.5 µM
- GI50 [8]: 87.6 µM
- GI50 [9]: 24 µM
- GI50 [10]: 98.8 µM
- GI50 [12]: 39.9 µM
- GI50 [13]: 52.2 µM
- GI50 [14]: 33.1 µM
- GI50 [15]: 21.6 µM
- GI50 [16]: 45.2 µM
- GI50 [17]: 32.7 µM
- GI50 [18]: 15.1 µM
- GI50 [19]: 9.42 µM
- TGI [19]: 49 µM
- GI50 [20]: 33.3 µM
- GI50 [21]: 82 µM
- GI50 [26]: 13.6 µM
- TGI [26]: 42.3 µM
- GI50 [28]: 44.4 µM
- GI50 [29]: 24.6 µM
- TGI [29]: 87.4 µM
- GI50 [30]: 1.61 µM
- TGI [30]: 3 µM
- GI50 [32]: 57.6 µM
- GI50 [34]: 20.9 µM
- GI50 [36]: 2.06 µM
- TGI [36]: 5.92 µM
- GI50 [37]: 37.2 µM
- GI50 [38]: 25.8 µM
- GI50 [41]: 74.1 µM
- GI50 [42]: 21.8 µM
- TGI [42]: 64.9 µM
- GI50 [43]: 41.5 µM
- GI50 [44]: 91.5 µM
- GI50 [46]: 24 µM
- TGI [46]: 99 µM
- GI50 [47]: 26.5 µM
- GI50 [48]: 40 µM
- GI50 [50]: 13.7 µM
- GI50 [51]: 40.8 µM
- GI50 [52]: 18.3 µM
- GI50 [54]: 88.1 µM
- GI50 [55]: 63 µM
- GI50 [58]: 11.4 µM
- TGI [58]: 24.2 µM
